Columns and labels:
[1] = Stability tests on rifampicin in acid, neutral and basic environments (FIG. 1); format: physicochemical
[2] = in vivo, cited from earlier work
[3] = cited from earlier work
[4] = determined by the intestinal pH values; cited from earlier work
[5] = oral, 600 mg, healthy volunteers; cited from earlier work

stability ([1]; acid environment): less stable
stability ([1]; neutral and weakly alkaline environments): sufficiently stable
Structure (SMILES): CO[C@H]1/C=C/O[C@@]2(C)Oc3c(C)c(O)c4c(O)c(c(/C=N/N5CCN(C)CC5)c(O)c4c3C2=O)NC(=O)/C(C)=C\C=C\[C@H](C)[C@H](O)[C@@H](C)[C@@H](O)[C@@H](C)[C@H](OC(C)=O)[C@@H]1C [rifampicin]
dose eliminated in the urine ([2]; po): approx. 20 % of the dose
amount present in the plasma relative to that eliminated by the renal route [2]: 5 times
pKa [3]: 1.7
solubility in the intestine [4]: 1000 to 6000 µg/mL
maximum blood concentration (Cmax) [5]: 9000 ng/mL
